Measured values taken from PMC8291126, “Functional Characterization of Ecdysis Triggering Hormone Receptors (AgETHR-A and AgETHR-B) in the African Malaria Mosquito, Anopheles gambiae” (Frontiers in Physiology, 2021).

Legend:
AgETHR-B = assay: Calcium mobilization assay (aequorin luminescence) with heterologously expressed AgETHR-B; assay type: cell-based, Anopheles gambiae; settings: for agonistic activity normalized by the activity of AgETH2 / response of AgETHR-B relative to other ETHs (in words) / concentration of maximum response (at the level over) / lowest activating concentration (receptor not activated lower than) / response/sensitivity of AgETHR-B to own ETHs (in words): AgETHR-B; for agonistic activity normalized by the activity of AgETH2: CHO cells, normalized to AgETH2; for response of AgETHR-B relative to other ETHs (in words): 0.1 μm; for EC50: AgETHR-B in CHO cells, calcium mobilization, luminescence integrated 20 s, at least three replicates; for higher sensitivity of AgETHR-B than AgETHR-A: AgETHR-B vs. AgETHR-A, calcium mobilization assay; for concentration of maximum response (at the level over) / lowest activating concentration (receptor not activated lower than) / response/sensitivity of AgETHR-B to own ETHs (in words): dose-response
Description: (§1) We tested different synthetic insect neuropeptides with PRXamide, including four groups: ETH, pyrokinin1/DH, pyrokinin2/PBAN, and CAPA. The following synthetic peptides were utilized to investigate selectivity and sensitivity of each AgETHR-A and AgETHR-B; AgETH1 (SESPGFIKLSKSVPRIa, NEOBiolab, United States), AgETH2 (GDLENFFLKQSKSVPRIa, GenScript United States Inc.), TcETH1 (ENYVLKAAKNVPRIa), TcETH2 (FFMKASKSVPRIa), TcPK1-1 (PGANSGGMWFGPRLa, GenScript United States Inc.), TcPK1-2 ([…]a), TcCAPA-1([…]a, PepMicCo. Ltd., Suzhou, China), TcCAPA-2 (RIGKMVSFPRIa); MsPBAN (TRTRYFSPRLa), Pyrokinin2-1 (HVVNFTPRLa, Biomatik, United States), DmETH1 (DDSSPGFFLKITKNVPRLa) and DmETH2 (GENFAIKNLKTIPRIa).
(§2) The functional analysis of the AgETH receptors was performed based on the previous description with modifications ([Park et al., 2003]; [Kim et al., 2014]; [Jiang et al., 2016]). The expression vector pcDNA 3.1 (+) (Invitrogen, Carlsbad, CA, United States), including the open reading frame (ORF) for each AgETHR-A and AgETHR-B, was transiently transfected into the CHO cells with a codon-optimized human apoaequorin-containing plasmid ([Vernon and Printen, 2002]) by using TransIT®-2020 (Mirus, Madison, WI, United States). […] The Kozak sequence for the mammalian Kozak consensus sequence ‘GCCACC’ at the 5' ends of each ORF for each AgETHR-A and AgETHR-B was […], allowing for successful functional expression. After approximately 24–28 h, transfected cells were harvested and prepared for the calcium mobilization assay by incubating in assay media DMEM/F12, including coelenterazine h (final concentration 5 μm; AAT Bioquest, Sunnyvale, CA, United States). Different concentrations of synthetic neuropeptides, including AgETH1, AgETH2, and ETH-related neuropeptides (PRXamides), were prepared in a 96-well plate, upon which the transfected cells (~15,000 cells in 50 μl) were applied. The value of luminescence, the indicator or calcium mobilization, was integrated over time for 20 s and normalized to the treatment of either 0.1 or 1 μm of each AgETH1 and AgETH2 positive control response and negative control background values.

AgETHR-A = assay: Calcium mobilization assay (aequorin luminescence) with heterologously expressed AgETHR-A; assay type: cell-based, Anopheles gambiae; settings: for agonistic activity normalized by the activity of AgETH1 / response of AgETHR-A (in words) / concentration of maximum response (at the level over) / lowest activating concentration (receptor not activated lower than) / response/sensitivity of AgETHR-A to own ETHs (in words): AgETHR-A; for agonistic activity normalized by the activity of AgETH1: CHO cells, normalized to AgETH1; for response of AgETHR-A (in words): 0.1 and 1 μm; for EC50: AgETHR-A in CHO cells, calcium mobilization, luminescence integrated 20 s, at least three replicates; for concentration of maximum response (at the level over) / lowest activating concentration (receptor not activated lower than) / response/sensitivity of AgETHR-A to own ETHs (in words): dose-response
Description: as §1, §2

TcETHR-B = settings: out of 70 peptides, ref Jiang et al., 2015; cited from earlier work

DDSSPGFFLKITKNVPRLa [DmETH1, D. melanogaster ETH]
agonistic activity normalized by the activity of AgETH2 (AgETHR-B; 0.1 μM peptide): 105% | agonistic activity normalized by the activity of AgETH2 (AgETHR-B; 1 μM peptide): 98% | agonistic activity normalized by the activity of AgETH1 (AgETHR-A; 0.1 μM peptide): 138% | agonistic activity normalized by the activity of AgETH1 (AgETHR-A; 1 μM peptide): 102% | response of AgETHR-A (in words) (AgETHR-A): responded

ENYVLKAAKNVPRIa [TcETH1, T. castaneum ETH]
agonist activity (in words) (TcETHR-B): agonist activity | agonistic activity normalized by the activity of AgETH2 (AgETHR-B; 0.1 μM peptide): 81% | agonistic activity normalized by the activity of AgETH2 (AgETHR-B; 1 μM peptide): 104% | response of AgETHR-B relative to other ETHs (in words) (AgETHR-B): relatively lower responses | agonistic activity normalized by the activity of AgETH1 (AgETHR-A; 0.1 μM peptide): -11% | agonistic activity normalized by the activity of AgETH1 (AgETHR-A; 1 μM peptide): 32% | response of AgETHR-A (in words) (AgETHR-A): small or no response

EPKEPKRNKLASVYALTPSLRVa [TcCAPA-1, synthetic insect neuropeptide, CAPA (PepMicCo)]
agonistic activity normalized by the activity of AgETH2 (AgETHR-B; 0.1 μM peptide): 0% | agonistic activity normalized by the activity of AgETH2 (AgETHR-B; 1 μM peptide): -2% | agonistic activity normalized by the activity of AgETH1 (AgETHR-A; 0.1 μM peptide): -22% | agonistic activity normalized by the activity of AgETH1 (AgETHR-A; 1 μM peptide): -4%

FFMKASKSVPRIa [TcETH2, T. castaneum ETH]
agonist activity (in words) (TcETHR-B): agonist activity | agonistic activity normalized by the activity of AgETH2 (AgETHR-B; 0.1 μM peptide): 109% | agonistic activity normalized by the activity of AgETH2 (AgETHR-B; 1 μM peptide): 107% | agonistic activity normalized by the activity of AgETH1 (AgETHR-A; 0.1 μM peptide): 57% | agonistic activity normalized by the activity of AgETH1 (AgETHR-A; 1 μM peptide): 86% | response of AgETHR-A (in words) (AgETHR-A): responded

GDLENFFLKQSKSVPRIa [AgETH2, Anopheles gambiae ecdysis triggering hormone 2, synthetic (GenScript)]
EC50 (AgETHR-B): 2.2 nM | higher sensitivity of AgETHR-B than AgETHR-A (AgETHR-B): 320 times | agonistic activity normalized by the activity of AgETH2 (AgETHR-B; 0.1 μM peptide): 100% | agonistic activity normalized by the activity of AgETH2 (AgETHR-B; 1 μM peptide): 100% | concentration of maximum response (at the level over) (AgETHR-B): over 100 nm | lowest activating concentration (receptor not activated lower than) (AgETHR-B): ≥ 0.03 nm | response/sensitivity of AgETHR-B to own ETHs (in words) (AgETHR-B): dose-dependent responses | response/sensitivity of AgETHR-B to own ETHs (in words) (AgETHR-B; listed as AgETH-2): sensitive | EC50 (AgETHR-A): 703 nM | agonistic activity normalized by the activity of AgETH1 (AgETHR-A; 0.1 μM peptide): 24% | agonistic activity normalized by the activity of AgETH1 (AgETHR-A; 1 μM peptide): 69% | concentration of maximum response (at the level over) (AgETHR-A): over 100 um | lowest activating concentration (receptor not activated lower than) (AgETHR-A): ≥ 10 nm | response/sensitivity of AgETHR-A to own ETHs (in words) (AgETHR-A): dose-dependent responses | response/sensitivity of AgETHR-A to own ETHs (in words) (AgETHR-A; listed as AgETH-2): sensitive

GENFAIKNLKTIPRIa [DmETH2, D. melanogaster ETH]
agonistic activity normalized by the activity of AgETH2 (AgETHR-B; 0.1 μM peptide): 83% | agonistic activity normalized by the activity of AgETH2 (AgETHR-B; 1 μM peptide): 102% | response of AgETHR-B relative to other ETHs (in words) (AgETHR-B): relatively lower responses | agonistic activity normalized by the activity of AgETH1 (AgETHR-A; 0.1 μM peptide): -14% | agonistic activity normalized by the activity of AgETH1 (AgETHR-A; 1 μM peptide): 2% | response of AgETHR-A (in words) (AgETHR-A): small or no response

HVVNFTPRLa [Pyrokinin2-1, synthetic insect neuropeptide with PRXamide (Biomatik)]
agonistic activity normalized by the activity of AgETH2 (AgETHR-B; 0.1 μM peptide): 1% | agonistic activity normalized by the activity of AgETH2 (AgETHR-B; 1 μM peptide): -1% | agonistic activity normalized by the activity of AgETH1 (AgETHR-A; 0.1 μM peptide): -21% | agonistic activity normalized by the activity of AgETH1 (AgETHR-A; 1 μM peptide): -4%

PGANSGGMWFGPRLa [TcPK-1-1, synthetic insect neuropeptide with PRXamide (GenScript)]
agonistic activity normalized by the activity of AgETH2 (AgETHR-B; 0.1 μM peptide): 1% | agonistic activity normalized by the activity of AgETH2 (AgETHR-B; 1 μM peptide): -3% | agonistic activity normalized by the activity of AgETH1 (AgETHR-A; 0.1 μM peptide): -18% | agonistic activity normalized by the activity of AgETH1 (AgETHR-A; 1 μM peptide): -2%

RIGKMVSFPRIa [TcCAPA-2, synthetic insect neuropeptide, CAPA]
agonistic activity normalized by the activity of AgETH2 (AgETHR-B; 0.1 μM peptide): 0% | agonistic activity normalized by the activity of AgETH2 (AgETHR-B; 1 μM peptide): 2% | agonistic activity normalized by the activity of AgETH1 (AgETHR-A; 0.1 μM peptide): -24% | agonistic activity normalized by the activity of AgETH1 (AgETHR-A; 1 μM peptide): -4%

SESPGFIKLSKSVPRIa [AgETH1, Anopheles gambiae ecdysis triggering hormone 1, synthetic (NEOBiolab)]
EC50 (AgETHR-B): 4.5 nM | higher sensitivity of AgETHR-B than AgETHR-A (AgETHR-B): 28 times | agonistic activity normalized by the activity of AgETH2 (AgETHR-B; 0.1 μM peptide): 97% | agonistic activity normalized by the activity of AgETH2 (AgETHR-B; 1 μM peptide): 98% | concentration of maximum response (at the level over) (AgETHR-B): over 100 nm | lowest activating concentration (receptor not activated lower than) (AgETHR-B): ≥ 0.1 nm | response/sensitivity of AgETHR-B to own ETHs (in words) (AgETHR-B): dose-dependent responses | response/sensitivity of AgETHR-B to own ETHs (in words) (AgETHR-B; listed as AgETH-1): sensitive | EC50 (AgETHR-A): 127 nM | agonistic activity normalized by the activity of AgETH1 (AgETHR-A; 0.1 μM peptide): 100% | agonistic activity normalized by the activity of AgETH1 (AgETHR-A; 1 μM peptide): 100% | concentration of maximum response (at the level over) (AgETHR-A): over 10 um | lowest activating concentration (receptor not activated lower than) (AgETHR-A): ≥ 3 nm | response/sensitivity of AgETHR-A to own ETHs (in words) (AgETHR-A): dose-dependent responses | response/sensitivity of AgETHR-A to own ETHs (in words) (AgETHR-A; listed as AgETH-1): sensitive

TPHESSVPNERNDDSKETYFWFGPRLa [TcPK-1-2, synthetic insect neuropeptide with PRXamide]
agonistic activity normalized by the activity of AgETH2 (AgETHR-B; 0.1 μM peptide): 1% | agonistic activity normalized by the activity of AgETH2 (AgETHR-B; 1 μM peptide): -2% | agonistic activity normalized by the activity of AgETH1 (AgETHR-A; 0.1 μM peptide): -13% | agonistic activity normalized by the activity of AgETH1 (AgETHR-A; 1 μM peptide): -3%

TRTRYFSPRLa [MsPBAN, synthetic insect neuropeptide with PRXamide]
agonistic activity normalized by the activity of AgETH2 (AgETHR-B; 0.1 μM peptide): 0% | agonistic activity normalized by the activity of AgETH2 (AgETHR-B; 1 μM peptide): -2% | agonistic activity normalized by the activity of AgETH1 (AgETHR-A; 0.1 μM peptide): -21% | agonistic activity normalized by the activity of AgETH1 (AgETHR-A; 1 μM peptide): -3%
